ChEMBL document CHEMBL1201862, “PubChem BioAssay data set” (2004)
Active and inactive are the calls of the source.

Experiments:
Leucine aminopeptidase = target: T1, Leucine aminopeptidase (Plasmodium falciparum 3D7, UniProt Q8IL11); assay: P. falciparum M17LAP inhibitors, primary screen, biochemical, fluorogenic H-Leu-NHMec substrate, 1536-well (AID 1619); assay type: functional
T1 sequence (Q8IL11 whole entry): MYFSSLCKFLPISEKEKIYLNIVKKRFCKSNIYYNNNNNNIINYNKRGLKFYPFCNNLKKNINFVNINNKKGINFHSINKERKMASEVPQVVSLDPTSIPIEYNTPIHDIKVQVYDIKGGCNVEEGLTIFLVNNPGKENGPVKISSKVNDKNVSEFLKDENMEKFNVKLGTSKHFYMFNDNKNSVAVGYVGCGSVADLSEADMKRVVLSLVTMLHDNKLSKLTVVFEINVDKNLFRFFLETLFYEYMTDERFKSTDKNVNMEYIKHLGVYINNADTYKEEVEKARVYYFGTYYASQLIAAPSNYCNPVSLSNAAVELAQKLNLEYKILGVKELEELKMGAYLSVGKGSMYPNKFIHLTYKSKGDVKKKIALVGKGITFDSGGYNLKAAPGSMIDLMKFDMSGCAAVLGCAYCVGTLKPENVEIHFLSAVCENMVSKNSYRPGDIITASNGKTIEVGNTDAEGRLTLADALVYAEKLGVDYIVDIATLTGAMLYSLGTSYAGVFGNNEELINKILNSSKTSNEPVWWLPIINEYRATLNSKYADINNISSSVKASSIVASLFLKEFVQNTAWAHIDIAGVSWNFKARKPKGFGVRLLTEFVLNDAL

[1] = system: Streptococcus sp. 'group A'; assay: Streptococcus pyogenes SK(-)GAS viability under kanamycin – luminescence, BacTiterGlo, confirmation, counter-screen for streptokinase expression inhibitor project, dose response (AID 1900); assay type: functional, organism-based
Streptokinase A = target: T2, Streptokinase A (Streptococcus pyogenes serotype M1, UniProt P10520); assay: viability-normalized secreted streptokinase activity reduction – plasminogen activation absorbance, OD405, dose response (AID 1914); assay type: functional, Streptococcus pyogenes M1 GAS;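 also: secreted streptokinase activity via plasminogen activation per viability signal from cell pellet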
T2 sequence (P10520 whole entry): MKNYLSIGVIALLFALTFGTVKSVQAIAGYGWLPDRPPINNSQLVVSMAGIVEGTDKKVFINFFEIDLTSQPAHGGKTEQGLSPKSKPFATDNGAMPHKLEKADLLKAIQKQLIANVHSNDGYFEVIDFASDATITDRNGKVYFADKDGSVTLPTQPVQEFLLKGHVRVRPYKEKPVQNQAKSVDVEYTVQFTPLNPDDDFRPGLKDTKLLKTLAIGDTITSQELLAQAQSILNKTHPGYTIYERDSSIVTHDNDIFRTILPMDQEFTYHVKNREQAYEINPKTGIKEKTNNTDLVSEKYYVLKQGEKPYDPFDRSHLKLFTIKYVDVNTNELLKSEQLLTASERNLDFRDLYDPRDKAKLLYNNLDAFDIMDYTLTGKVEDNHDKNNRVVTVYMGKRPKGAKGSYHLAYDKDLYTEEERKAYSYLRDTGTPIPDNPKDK

Streptococcus = assay: GAS UMAA2166 growth inhibition – luminescence, BacTiterGlo, counter-screen for streptokinase expression inhibitor project, dose response (AID 1915); assay type: functional, organism-based;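 also: potency for reduction of bacterial viability or growth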
Cytochrome P450 3A4 [2] = target: T3, Cytochrome P450 3A4 (Homo sapiens, UniProt P08684); conditions: Potency
T3 sequence (P08684 whole entry): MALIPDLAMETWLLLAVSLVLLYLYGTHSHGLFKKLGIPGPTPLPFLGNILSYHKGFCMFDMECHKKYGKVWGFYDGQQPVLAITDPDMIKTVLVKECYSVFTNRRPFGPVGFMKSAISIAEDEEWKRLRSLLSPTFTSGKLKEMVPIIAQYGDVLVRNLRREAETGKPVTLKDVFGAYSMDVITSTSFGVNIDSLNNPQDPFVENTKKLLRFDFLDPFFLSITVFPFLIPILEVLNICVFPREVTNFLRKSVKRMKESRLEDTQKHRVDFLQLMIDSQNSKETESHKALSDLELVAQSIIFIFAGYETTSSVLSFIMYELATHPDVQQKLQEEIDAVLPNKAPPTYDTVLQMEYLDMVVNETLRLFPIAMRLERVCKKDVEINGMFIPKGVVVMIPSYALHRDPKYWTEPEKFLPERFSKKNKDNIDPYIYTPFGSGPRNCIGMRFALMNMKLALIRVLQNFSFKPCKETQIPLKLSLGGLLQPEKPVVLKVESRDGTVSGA

[3] = target: T4, Short transient receptor potential channel 4 (Mus musculus, UniProt Q9QUQ5); assay: block of DAMGO-driven TRPC4 calcium entry – cell-based, HEK293 TRPC4/mu-opioid, Fluo-4 calcium, dose response (AID 434942); assay type: functional;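 also: potency of inhibitors blocking the TRPC4 calcium response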
T4 sequence (Q9QUQ5 whole entry): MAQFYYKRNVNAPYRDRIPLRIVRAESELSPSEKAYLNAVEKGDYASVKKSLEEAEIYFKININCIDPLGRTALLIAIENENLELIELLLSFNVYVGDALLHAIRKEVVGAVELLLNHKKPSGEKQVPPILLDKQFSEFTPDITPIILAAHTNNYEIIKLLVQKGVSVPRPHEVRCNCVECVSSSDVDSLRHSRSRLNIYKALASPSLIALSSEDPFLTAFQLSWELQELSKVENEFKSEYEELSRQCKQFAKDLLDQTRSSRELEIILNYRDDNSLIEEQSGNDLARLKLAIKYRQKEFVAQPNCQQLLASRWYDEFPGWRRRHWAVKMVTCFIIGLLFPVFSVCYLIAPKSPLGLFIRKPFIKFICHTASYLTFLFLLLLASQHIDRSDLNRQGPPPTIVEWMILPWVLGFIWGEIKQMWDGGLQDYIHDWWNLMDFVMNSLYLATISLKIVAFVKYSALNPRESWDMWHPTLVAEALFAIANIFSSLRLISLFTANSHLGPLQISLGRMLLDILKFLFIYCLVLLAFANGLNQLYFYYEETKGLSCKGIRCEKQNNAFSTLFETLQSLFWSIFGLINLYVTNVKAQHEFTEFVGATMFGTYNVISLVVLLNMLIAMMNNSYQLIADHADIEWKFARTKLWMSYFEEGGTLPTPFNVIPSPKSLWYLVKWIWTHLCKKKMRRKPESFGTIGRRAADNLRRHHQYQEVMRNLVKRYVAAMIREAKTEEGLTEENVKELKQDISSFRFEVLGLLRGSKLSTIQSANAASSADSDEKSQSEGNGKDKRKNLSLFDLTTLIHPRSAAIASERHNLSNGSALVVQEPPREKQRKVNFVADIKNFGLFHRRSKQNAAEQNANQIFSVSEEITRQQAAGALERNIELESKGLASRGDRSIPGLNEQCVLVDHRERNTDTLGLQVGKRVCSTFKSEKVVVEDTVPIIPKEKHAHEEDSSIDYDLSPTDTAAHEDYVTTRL

H9c2 = assay: cells; assay type: functional, cell-based; conditions: Rattus norvegicus, H9c2, Myocardium;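 also: confirmatory concentration-response retest of ultra-high-throughput screening hits for modulation of myocardial damage; cell death induced by hydrogen peroxide oxidative stress; compound pretreatment for 60 min then peroxide exposure for 2 h; potency is for protecting the cells against peroxide damage rather than for killing them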
[4] = luciferase reporter signal suppression in cells – H4 neuroglioma cells, luminescence, dose response (AID 1990); assay type: functional, cell-based
[5] = Luminescence Cell-Based Dose Response HTS to Identify Inhibitors of 5'UTR Stem-Loop Driven Prion Protein mRNA Translation in H4 Neuroglioblastoma Cells. [Related pubchem assays: 1827 (Project Summary), 1813 (Primary HTS)]; assay type: functional
[6] = alpha-synuclein stem-loop luciferase translation blockers – H4 neuroglioma cells, luminescence, confirmation (AID 1988); assay type: functional, cell-based
Cytochrome P450 3A4 [7] = target: T3, Cytochrome P450 3A4
[8] = target: T5, Rac GTPase-activating protein 1 (Homo sapiens, UniProt Q9H0H5); assay: blockers of MgcRacGAP-driven Rac1 GTP hydrolysis – biochemical, ADP Hunter fluorescence, primary and confirmatory, confirmation (AID 624330); assay type: functional
T5 sequence (Q9H0H5 whole entry): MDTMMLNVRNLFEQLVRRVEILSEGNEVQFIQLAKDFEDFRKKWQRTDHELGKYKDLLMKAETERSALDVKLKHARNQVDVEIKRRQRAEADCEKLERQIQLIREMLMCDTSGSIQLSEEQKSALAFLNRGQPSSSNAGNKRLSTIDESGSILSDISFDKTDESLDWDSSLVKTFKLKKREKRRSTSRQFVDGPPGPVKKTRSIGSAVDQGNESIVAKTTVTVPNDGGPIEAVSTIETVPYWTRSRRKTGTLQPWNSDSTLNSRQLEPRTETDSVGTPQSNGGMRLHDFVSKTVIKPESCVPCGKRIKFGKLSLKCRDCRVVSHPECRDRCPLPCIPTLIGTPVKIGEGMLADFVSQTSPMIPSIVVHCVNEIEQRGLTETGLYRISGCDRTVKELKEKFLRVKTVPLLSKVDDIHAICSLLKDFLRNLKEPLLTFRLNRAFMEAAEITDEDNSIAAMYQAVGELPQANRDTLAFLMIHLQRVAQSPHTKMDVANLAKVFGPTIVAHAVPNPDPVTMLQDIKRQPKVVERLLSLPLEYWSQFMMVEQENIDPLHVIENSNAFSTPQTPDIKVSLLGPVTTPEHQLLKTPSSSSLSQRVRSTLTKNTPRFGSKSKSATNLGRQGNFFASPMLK

For O=C(NC(=S)NNC(=O)c1ccc(Cl)cc1Cl)c1cccnc1, the IC50 (Leucine aminopeptidase) was 49.6 µM (active), the EC50 [1] was 5.27 µM (active) and the EC50 (Streptokinase A) was > 150 µM (not active). The EC50 (Streptococcus) was 96.5 µM (active).

For COCCN(CCOC)c1nc(C)nc2c1nc(-c1ccccc1)n2CCCN(C)C, the AC50 (Cytochrome P450 3A4 [2]) was 7.94 µM (inconclusive).

For O=C(Nc1ccccc1)N1CCN2C(=O)c3ccccc3C12c1ccccc1 (configuration not stated), the EC50 [3] was 2.11 µM (active).

With Cc1sc2nc(SCC(=O)N3CCCC3)nc(O)c2c1C the IC50 (H9c2) was > 79 µM (inactive).

In the case of N#C/C(=C\c1cn(-c2ccccc2)nc1-c1cccnc1)c1nnc2n1CCCCC2, the IC50 (H9c2) is reported as 15.8 µM (active).

With Cc1nc2c3cc(Cl)ccc3n(CCN3CCCCC3)c2s1 the EC50 [3] was 4.22 µM (active).

With CCOC(=O)C1CCN(c2cc3c(cc2NC(=O)c2ccccc2)n(C)c(=O)n3C)CC1 the IC50 (H9c2) was > 79 µM (inactive).

For COc1ccc(Br)cc1CNC(C)c1ccccc1 (configuration not stated), the EC50 [3] was 5.31 µM (active).

For CC1(C)C(O)CC(O)[C@]2(C)C1CC(O)[C@]1(C)C2CC[C@@]2(C)C(c3ccoc3)CC3OC312 (some centres not stated), the AC50 (Cytochrome P450 3A4 [2]) was 3.16 µM (inconclusive).

For COc1ccc(NC(=O)c2cccc(N3C(=O)C4CC=C(C)CC4C3=O)c2)c(OC)c1 (configuration not stated), the EC50 [3] was 0.0173 µM (active).

With O=C(O[C@@H]1Cc2c(O)cc(O)cc2OC1c1ccc(O)c(O)c1)c1cc(O)c(O)c(O)c1 (some centres not stated) the AC50 (Cytochrome P450 3A4 [2]) was 25.1 µM (inconclusive).

In the case of CCOC(=O)c1c(NC(=O)C2C3C=CC(C3)C2C(=O)O)sc2c1CC(C)CC2 (configuration not stated), the IC50 (Leucine aminopeptidase) is reported as 10.1 µM (active), the EC50 [4] is reported as > 120 µM (not active) and the EC50 [5] is reported as 60.9 µM (active). For the same molecule, the EC50 [6] was 48.1 µM (active).

For Cc1ccc(NC(=O)CCc2nc(O)c3ccccc3n2)cc1S(=O)(=O)N1CCOCC1, the IC50 (H9c2) was > 79 µM (inactive).

With NS(=O)(=O)c1cccc(NC(=O)COC(=O)Cc2nnc(O)c3ccccc23)c1 the IC50 (H9c2) was > 79 µM (inactive).

With Cc1ccc(C=NNc2nc3c(=O)n(C)c(=O)n(C)c3[nH]2)cc1 the IC50 (H9c2) was > 79 µM (inactive).

For COc1ccc2c(=O)cc(-c3ccccc3)oc2c1O, the AC50 (Cytochrome P450 3A4 [2]) was 39.8 µM (inconclusive).

With CC1=NNC(=O)C1CCC(=O)N/N=C\c1ccccc1[N+](=O)[O-] (configuration not stated) the IC50 (Leucine aminopeptidase) was 3.14 µM (active) and the AC50 (Cytochrome P450 3A4 [7]) was 17.8 µM (inconclusive).

In the case of Cc1cc(=O)oc2c(O)c(O)ccc12 [4-METHYLDAPHNETIN], the IC50 [8] is reported as 25.9 µM (active) and the AC50 (Cytochrome P450 3A4 [2]) is reported as 25.1 µM (inconclusive).

For CCCCN(CC)c1c([N+](=O)[O-])cc(C(F)(F)F)cc1[N+](=O)[O-] [BENFLURALIN], the AC50 (Cytochrome P450 3A4 [2]) was 15.8 µM (inconclusive).
